Several values for one entry are separate records, joined by “and”; a condition that tells them apart may be missing. Equal entries are not always repeated.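 96-well plates; 48 h exposure; 5 concentrations. Endpoints by linear interpolation between flanking doses. Not reached: highest tested concentration assigned. Abbreviation: GI50, concentration required for 50% inhibition of growth. Definition used: TGI = concentration required for complete inhibition of growth.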

TGI and GI50 data for 22 compounds are collected here from PubChem BioAssay (NCI).

Among the test systems are RXF-631 renal; DLD-1 colon; DMS 273 small cell lung; KM20L2 colon; LXFL 529 NSCLC; SNB-78 CNS; MCF7 breast; MDA-N; PC-3 prostate; P388 leukemia; P388/ADR leukemia.
What all share (test): NCI tumour cell line growth inhibition, 48 h

As to `COc1cc(C(C)c2cc3c(cc2OCCNC(=O)COc2cc4c(cc2C(C)c2cc(OC)c(OC)c(OC)c2)OCO4)OCO3)cc(OC)c1OC` (stereo not drawn), the TGI with RXF-631 renal, in the experiment with DLD-1 colon, in the experiment on DMS 273 small cell lung, with KM20L2 colon and with LXFL 529 NSCLC was > 100 µM throughout.
Take `CC(C(=O)c1ccccc1)C1(O)C(=O)Nc2ccc(Cl)cc21` (stereo not drawn): the TGI in the experiment with SNB-78 CNS, with DLD-1 colon, in the experiment on KM20L2 colon and in the experiment on LXFL 529 NSCLC was > 100 µM each time.
Regarding `O=S(=O)(N=NC=C1c2ccccc2N(O)c2ccccc21)c1ccc(Cl)cc1`, the TGI in the experiment with RXF-631 renal, with SNB-78 CNS, in the experiment on DLD-1 colon, in the experiment with DMS 273 small cell lung, with KM20L2 colon and with LXFL 529 NSCLC was > 100 µM in each case.
`Cc1nc(/C=C2\C(=O)C=Cc3ccccc32)c(O)o1`: the TGI in the experiment on SNB-78 CNS, in the experiment on DLD-1 colon, with KM20L2 colon and in the experiment on LXFL 529 NSCLC was > 100 µM each time.
For `C=CCN1/C(=C2\SC(=S)N(c3ccc(C)cc3)C2=O)Sc2c1ncn(C)c2=O`, the TGI in the experiment on SNB-78 CNS, with DLD-1 colon, in the experiment with DMS 273 small cell lung, in the experiment with KM20L2 colon and with LXFL 529 NSCLC was > 100 µM in each case.
On to `Cc1c(N)nc(C(CC(N)=O)NCC(N)C(N)=O)nc1C(=O)NC(C(=O)NC(C)C(O)C(C)C(=O)NC(C(=O)NCCc1nc(-c2nc(C(=O)NCCCNC(C)c3ccccc3)cs2)cs1)C(C)O)C(OC1OC(CO)C(O)C(O)C1OC1OC(CO)C(O)C(OC(N)=O)C1O)c1cnc[nH]1` (stereo not drawn), for which the TGI was > 50 µM with SNB-78 CNS; 50 µM in the experiment on DLD-1 colon; 4.95 µM in the experiment with DMS 273 small cell lung; > 100 µM with MCF7 breast; > 100 µM in the experiment on MDA-N; 50 µM in the experiment on KM20L2 colon. Besides, the TGI in the experiment with PC-3 prostate is > 100 µM; in the experiment with LXFL 529 NSCLC, 50 µM. In addition, the GI50 in the experiment with MDA-N was > 100 µM; in the experiment on PC-3 prostate, 38.8 µM.
With `C#CC1(O)CCC2[C@@H]3CCc4cc(Oc5nc(F)nc(-c6c7ccccc7c(SCC)n6CCC)n5)ccc4C3CC[C@@]21C` (stereo partly drawn), the TGI in the experiment with RXF-631 renal, in the experiment on SNB-78 CNS, with DLD-1 colon, in the experiment on DMS 273 small cell lung, with KM20L2 colon and in the experiment with LXFL 529 NSCLC was > 100 µM each time.
In the case of `O=C(Nc1ccccc1-c1nn(CN2CCNCC2)c(=S)n(CN2CCNCC2)c1=O)C(F)(F)F`, the TGI with RXF-631 renal amounted to 46.8 µM; in the experiment with SNB-78 CNS, 62.4 µM; in the experiment on DLD-1 colon, 33.3 µM; in the experiment on DMS 273 small cell lung, 35.3 µM.
With `O=C1CNC(=O)c2[nH]cnc2N1`, the TGI with RXF-631 renal, with SNB-78 CNS, with DLD-1 colon, with DMS 273 small cell lung and in the experiment with LXFL 529 NSCLC was > 100 µM in each case.
Consider `COC(=O)C1CC(OC(C)=O)C=C2C(=O)CCC21` (stereo not drawn), for which the TGI in the experiment on RXF-631 renal is 86.8 µM; in the experiment on SNB-78 CNS, 72.8 µM; in the experiment with DLD-1 colon it was 40.7 µM; in the experiment with DMS 273 small cell lung, 43.8 µM; in the experiment with KM20L2 colon, 70.1 µM; with LXFL 529 NSCLC it was 39.3 µM.
On to `N#CC(C#N)=Cc1ccc(CP(=O)(O)O)cc1`, for which the TGI in the experiment on RXF-631 renal, with SNB-78 CNS, with DLD-1 colon, with DMS 273 small cell lung, in the experiment on KM20L2 colon and in the experiment with LXFL 529 NSCLC was > 100 µM each time.
For `Cc1ccc(S(=O)(=O)C2=c3nc4ccccc4cc3=C3C(=O)c4ccccc4C(=O)C32)cc1` (stereo not drawn), the TGI with DLD-1 colon, in the experiment on DMS 273 small cell lung, in the experiment on KM20L2 colon and in the experiment on LXFL 529 NSCLC was > 100 µM throughout.
`CC(=O)NNc1nc(C)c(C(=O)/C=C/c2ccc(Cl)cc2)s1`: the TGI with SNB-78 CNS, in the experiment with DLD-1 colon, in the experiment on DMS 273 small cell lung and with KM20L2 colon was > 100 µM each time.
`CCOC(=O)C(Cc1ccccc1)NC(=O)c1[nH]cnc1/N=N/N(C)C` (stereo not drawn): the TGI in the experiment on DLD-1 colon, with DMS 273 small cell lung and in the experiment with LXFL 529 NSCLC was > 100 µM throughout.
As to `CCCCc1c2cnccc2c(CCCC)c2c1[nH]c1ccccc12`, the TGI in the experiment with SNB-78 CNS was 77.8 µM; with DLD-1 colon, > 100 µM; in the experiment on DMS 273 small cell lung, 27.9 µM; in the experiment on KM20L2 colon, > 100 µM; in the experiment on LXFL 529 NSCLC it was 25.6 µM.
As to `Cc1ccc(S(=O)(=O)c2ccc(C)cc2[N+](=O)[O-])cc1`, the TGI in the experiment with SNB-78 CNS, in the experiment with DLD-1 colon, in the experiment with DMS 273 small cell lung, with KM20L2 colon and in the experiment with LXFL 529 NSCLC was > 100 µM throughout.
In the case of `COc1ccc2oc(-c3ccc(OC)c(OC)c3OC)cc(=O)c2c1`, the figures for the TGI with DLD-1 colon, in the experiment with KM20L2 colon and in the experiment with LXFL 529 NSCLC were > 100 µM, 63.1 µM and > 100 µM, respectively.
With `CC1=NOC(=O)/C1=C/c1ccc([N+](=O)[O-])cc1`, the TGI with RXF-631 renal, with SNB-78 CNS, in the experiment with DLD-1 colon, in the experiment with DMS 273 small cell lung and with KM20L2 colon was > 100 µM in each case.
For `COC1CCC(OC)C(C2(C3CC(OC)CCC3OC)OC(=O)c3ccccc32)C1` (stereo not drawn), the TGI in the experiment on RXF-631 renal, in the experiment with SNB-78 CNS, in the experiment with DLD-1 colon, in the experiment with DMS 273 small cell lung and in the experiment on KM20L2 colon was > 100 µM each time.
With `CCCCCCCCCCCCCCCCOP(=O)([O-])OCC[N+](C)(C)C`, the TGI with P388 leukemia is > 66.3 µM; in the experiment on P388/ADR leukemia, > 86.6 µM; in the experiment on SNB-78 CNS it was > 100 µM; in the experiment with DLD-1 colon, 62.2 µM; in the experiment on DMS 273 small cell lung, 25.8 µM; with MCF7 breast, 16 µM and 59.1 µM. Also, the TGI was 54.8 µM in the experiment with MDA-N; 1.51 µM and 7.73 µM with PC-3 prostate. For the same compound, the figures for the GI50 in the experiment on MCF7 breast and in the experiment with PC-3 prostate were 3.62 µM and 0.277 µM, respectively.
With `COc1cc(OC)c(OC)cc1/C=C/c1cnnc2ccccc12`, the TGI in the experiment with MCF7 breast, with MDA-N and with PC-3 prostate was > 10 µM throughout.
On to `COc1cc(NS(C)(=O)=O)ccc1NCc1c2ccccc2nc2ccccc12`, for which the TGI in the experiment with RXF-631 renal was 71.3 µM; with DLD-1 colon, 85.4 µM; with DMS 273 small cell lung it was > 100 µM; with KM20L2 colon it was > 100 µM; with LXFL 529 NSCLC it was > 100 µM.
